Patent publication US20250353825A1, “CANNABICYCLOL DERIVATIVES AND PREPARATION METHODS THEREOF” (priority 2023, published 2025)
In brackets after ≈: the same amount, converted by molar mass.

Experiments:
GSC-12 = assay: Soft agar colony (clone) formation, GSC-12; assay type: cell-based; details: crystal violet, FIG. 4, compound 3a 0, 5 and 5 [sic] μg/mL
Procedure: […] of low-melting-point agarose was dissolved in 12.5 mL of ddH2O to prepare a 3.2% low-melting-point agarose gel. The low-melting-point agarose gel was sterilized by autoclaving at 121° C. and 0.12 MPa for 20 minutes. After sterilization, the low-melting-point agarose gel was maintained at 60° C. in a drying oven for further use.
1.75 mL of 3.2% sterile low-melting-point agarose gel was taken, 5.25 mL of the corresponding complete medium was added, and the two were mixed thoroughly using a pipette to prepare a base gel at a concentration of 0.8%.
1 mL of the base gel was added to each well of a 6-well plate, ensuring that the base gel evenly covered the bottom of each well. The plate was placed at 4° C. for 5 minutes to allow the gel to solidify. After the gel had fully solidified, the plate was warmed at 37° C. for 5 minutes.
6 cells/cell lines (U251, SMMC7721, GSC-3, GSC-12, SMMC7721-CSC, and HepG2-CSC) were individually digested with 1× trypsin for 3 minutes. The corresponding complete culture medium (same as in the application example 1) was added to terminate the digestion. Cells were centrifuged at 1000 rpm for 3 minutes, and the cells were collected and counted. A total of 5×10^3 cells were added to each well, each group was set up with three replicates. […]

GSC-3diff = assay: MTS cell viability assay, differentiated glioblastoma stem cells GSC-3diff; assay type: cell-based; details: Table 7, 72 hours, read-out: IC50 against GSC-3diff
Procedure: Primary viability screening: (1) the synthesized compounds 3a to 13d were respectively dissolved in DMSO to prepare a 40 μg/mL cannabicyclol and cannabicyclol derivative solutions.
(2) A control group: a 200 μL DMSO solvent.
(3) The solutions of compounds 3a to 13d were diluted in a twofold gradient to obtain cannabicyclol and cannabicyclol derivative solutions at concentrations of 40 μg/mL, 20 μg/mL, 10 μg/mL, 5 μg/mL, 2.5 μg/mL, 1.25 μg/mL, and 0.625 μg/mL, and 0.3125 μg/mL, respectively.
(4) Three glioblastoma stem cells (GSC-3, GSC-12, and GSC-18), three pancreatic cancer cell-derived stem cells (PANC-1-CSC, BXPC-3-CSC, and ASPC1-CSC), three liver cancer cell-derived stem cells (HepG2-CSC, MHCC97H-CSC, and SMMC7721-CSC), HEK-293T cells, 16 tumor cells (U251, U87, T98G, PANC1, BXPC3, ASPC1, HepG2, MHCC97H, SMMC7721, PC3, SKOV3, MDA-MB231, A549, HCT116, HEC-1B, MKN28), and differentiated glioblastoma stem cells (GSC-3diff and GSC-12diff) derived from GSC-3 and GSC-12 (all of the cells were provided by the Laboratory of Tumor Animal Model Preparation and Application Research, West China Hospital, Sichuan University) were inoculated into a 96-well plate at a concentration of 2×10^4 cells/well, and 100 μL of culture medium was then added to each well; […]
(10) The absorbance value at 490 nm was measured on an enzyme labeling apparatus, and the IC50 value was calculated.

In the case of CCCCCc1cc(O)c2c(c1)OC1(C)CCC3C1C2C3(C)C (centres unmarked) [Compound 3a, cannabicyclol], the “colony formation of GSC-12” value (GSC-12) is reported as “significantly inhibited” and the IC50 (GSC-3diff) is reported as 23.5 µg/mL (≈ 74.7 µM).
